Data reported in patent publication US12528800B2, “Pesticidal compounds” (BASF SE, priority 2018, dated 2026).

Assays:
Assay type in all cases: in vivo
[1] = test system: boll weevil (Anthonomus grandis); test: Action on boll weevil (Anthonomus grandis), microtiter plate diet test; conditions: 120 h, egg and larval mortality after 5 days, read-out: mortality in comparison with untreated controls
Protocol: For evaluating control of boll weevil (Anthonomus grandis) the test unit consisted of 96-well-microtiter plates containing an insect diet and 5-10 A. grandis eggs.
The compounds were formulated using a solution containing 75% (v/v) water and 25% (v/v) DMSO. Different concentrations of formulated compounds were sprayed onto the insect diet at 5 μl, using a custom built micro atomizer, at two replications.
After application, microtiter plates were incubated at about 25+1° C. and about 75+5% relative humidity for 5 days. Egg and larval mortality was then visually assessed.

[2] = test system: Diamond back moth (Plutella xylostella); test: Action on diamond back moth (Plutella xylostella), cabbage leaf dip; conditions: foliar, 3rd instar larvae on dipped cabbage leaves, 72 hours after treatment, read-out: mortality in comparison with untreated controls
Protocol: The active compound is dissolved at the desired concentration in a mixture of 1:1 (v/v) distilled water: acetone. Surfactant (Kinetic® HV) is added at a rate of 0.01% (v/v). The test solution is prepared at the day of use.
Leaves of cabbage were dipped in test solution and air-dried. Treated leaves were placed in petri dishes lined with moist filter paper and inoculated with ten 3rd instar larvae. Mortality was recorded 72 hours after treatment. Feeding damages were also recorded using a scale of 0-100%.

[3] = test system: tobacco budworm (Heliothis virescens); test: Action on tobacco budworm (Heliothis virescens), microtiter plate diet test; conditions: 120 h, egg and larval mortality after 5 days, read-out: mortality in comparison with untreated controls
Protocol: For evaluating control of tobacco budworm (Heliothis virescens) the test unit consisted of 96-well-microtiter plates containing an insect diet and 15-25 H. virescens eggs.
The compounds were formulated using a solution containing 75% v/v water and 25% v/v DMSO. Different concentrations of formulated compounds were sprayed onto the insect diet at 10 μl, using a custom-built micro atomizer, at two replications.
After application, microtiter plates were incubated at about 28+1° C. and about 80+5% relative humidity for 5 days. Egg and larval mortality were then visually assessed.

[4] = test system: Orchid thrips (Dichromothrips corbetti); test: Action on orchid thrips (Dichromothrips corbetti), floral-immersion technique; conditions: adult thrips, 72 hours after treatment, read-out: mortality in comparison with untreated controls
Protocol: Dichromothrips corbetti adults used for bioassay were obtained from a colony maintained continuously under laboratory conditions. For testing purposes, the test compound is diluted in a 1:1 mixture of acetone:water (vol:vol), plus Kinetic® HV at a rate of 0.01% v/v.
Thrips potency of each compound was evaluated by using a floral-immersion technique. All petals of individual, intact orchid flowers were dipped into treatment solution and allowed to dry in Petri dishes. Treated petals were placed into individual re-sealable plastic along with about 20 adult thrips. All test arenas were held under continuous light and a temperature of about 28° C. for duration of the assay. After 3 days, the numbers of live thrips were counted on each petal. The percent mortality was recorded 72 hours after treatment.

[5] = test system: Southern armyworm (Spodoptera eridania), 2nd instar larvae; test: Action on southern armyworm (Spodoptera eridania), 2nd instar larvae, sprayed lima bean plants; conditions: 96 h, 2nd instar larvae on lima bean plants, 4 days after treatment, read-out: mortality in comparison with untreated controls
Protocol: The active compounds were formulated by a Tecan liquid handler in 100% cyclohexanone as a 10,000 ppm solution supplied in tubes. The 10,000 ppm solution was serially diluted in 100% cyclohexanone to make interim solutions. These served as stock solutions for which final dilutions were made by the Tecan in 50% acetone:50% water (v/v) into 10 or 20 ml glass vials. A nonionic surfactant (Kinetic®) was included in the solution at a volume of 0.01% (v/v). The vials were then inserted into an automated electrostatic sprayer equipped with an atomizing nozzle for application to plants/insects.
Lima bean plants (variety Sieve) were grown 2 plants to a pot and selected for treatment at the 1st true leaf stage. Test solutions were sprayed onto the foliage by an automated electrostatic plant sprayer equipped with an atomizing spray nozzle. The plants were dried in the sprayer fume hood and then removed from the sprayer. Each pot was placed into perforated plastic bags with a zip closure. About 10 to 11 armyworm larvae were placed into the bag and the bags zipped closed. Test plants were maintained in a growth room at about 25° C. and about 20-40% relative humidity for 4 days, avoiding direct exposure to fluorescent light (24 hour photoperiod) to prevent trapping of heat inside the bags. Mortality and reduced feeding were assessed 4 days after treatment, compared to untreated control plants.

[6] = test system: yellow fever mosquito (Aedes aegypti); test: whole plant or invertebrate; conditions: 48 h, larval mortality visually assessed after 2 days, read-out: mortality in comparison with untreated controls
Protocol: For evaluating control of yellow fever mosquito (Aedes aegypti) the test unit consisted of 96-well-microtiter plates containing 200 μl of tap water per well and 5-15 freshly hatched A. aegypti larvae.
The active compounds or mixtures were formulated using a solution containing 75% (v/v) water and 25% (v/v) DMSO. Different concentrations of formulated compounds or mixtures were sprayed onto the insect diet at 2.5 μl using a custom built micro atomizer, at two replications.
For experimental mixtures in these tests identical volumes of both mixing partners at the desired concentrations respectively, were mixed together.
After application, microtiter plates were incubated at 28+1° C., 80+5% RH for 2 days. Larval mortality was then visually assessed.

[7] = test system: Silverleaf whitefly (Bemisia argentifolii) (adults); test: Action on silverleaf whitefly (Bemisia argentifolii) adults, sprayed cotton plants; conditions: 72 h, 3 days after treatment, read-out: mortality in comparison with untreated controls
Protocol: The active compounds were formulated by a Tecan liquid handler in 100% cyclohexanone as a 10,000 ppm solution supplied in tubes. The 10,000 ppm solution was serially diluted in 100% cyclohexanone to make interim solutions. These served as stock solutions for which final dilutions were made by the Tecan in 50% acetone:50% water (v/v) into 5 or 10 ml glass vials. A nonionic surfactant (Kinetic®) was included in the solution at a volume of 0.01% (v/v). The vials were then inserted into an automated electrostatic sprayer equipped with an atomizing nozzle for application to plants/insects.
Cotton plants at the cotyledon stage (one plant per pot) were sprayed by an automated electrostatic plant sprayer equipped with an atomizing spray nozzle. The plants were dried in the sprayer fume hood and then removed from the sprayer. Each pot was placed into a plastic cup and about 10 to 12 whitefly adults (approximately 3-5 days old) were introduced. The insects were collected using an aspirator and a nontoxic Tygon® tubing connected to a barrier pipette tip. The tip, containing the collected insects, was then gently inserted into the soil containing the treated plant, allowing insects to crawl out of the tip to reach the foliage for feeding. Cups were covered with a reusable screened lid. Test plants were maintained in a growth room at about 25° C. and about 20-40% relative humidity for 3 days, avoiding direct exposure to fluorescent light (24 hour photoperiod) to prevent trapping of heat inside the cup. Mortality was assessed 3 days after treatment, compared to untreated control plants.

CC(C)c1ccccc1NC(=S)N/N=C/c1ccc(-c2cc(NC(=O)c3ccc(OC(F)(F)F)cc3)n(C)n2)cc1 [Compound C-1, N-[5-[4-[(E)-[(2-isopropylphenyl)carbamothioylhydrazono]methyl]phenyl]-2-methyl-pyrazol-3-yl]-4-(trifluoromethoxy)benzamide]
mortality at 800 ppm [1]: ≥ 75% | mortality at 500 ppm [2]: ≥ 75% | mortality at 800 ppm [3]: ≥ 75% | mortality at 500 ppm [4]: ≥ 75% | mortality at 300 ppm [5]: ≥ 75% | mortality at 800 ppm [6]: ≥ 50% | mortality at 300 ppm [7]: ≥ 75%

CC(C)c1ccccc1NC(=S)N/N=C/c1ccc(-c2cc(OCc3ccc(OC(F)(F)F)cc3)n(C)n2)cc1 [Compound C-10, 1-(2-isopropylphenyl)-3-[(E)-[4-[1-methyl-5-[[4-(trifluoromethoxy)phenyl]methoxy]pyrazol-3-yl]phenyl]methyleneamino]thiourea]
mortality at 800 ppm [1]: ≥ 75% | mortality at 500 ppm [2]: ≥ 75% | mortality at 800 ppm [3]: ≥ 75% | mortality at 500 ppm [4]: ≥ 75% | mortality at 300 ppm [5]: ≥ 75% | mortality at 300 ppm [7]: ≥ 75%

CC(C)c1ccccc1NC(=S)N/N=C/c1ccc(-c2cc(COc3ccc(OC(F)(F)F)cc3)n(C)n2)cc1 [Compound C-52, 1-(2-isopropylphenyl)-3-[(E)-[4-[1-methyl-5-[[4-(trifluoromethoxy)phenoxy]methyl]pyrazol-3-yl]phenyl]methyleneamino]thiourea]
mortality at 800 ppm [1]: ≥ 75% | mortality at 500 ppm [2]: ≥ 75% | mortality at 800 ppm [3]: ≥ 75% | mortality at 500 ppm [4]: ≥ 75% | mortality at 300 ppm [5]: ≥ 75% | mortality at 800 ppm [6]: ≥ 50% | mortality at 300 ppm [7]: ≥ 75%

CC(C)c1ccccc1N1C(=O)CS/C1=N\N=C\c1ccc(-c2nc(NC(=O)c3ccc(OC(F)(F)F)cc3)n(C)n2)cc1 [Compound C-64, N-[5-[4-[(E)-[(Z)-[3-(2-isopropylphenyl)-4-oxo-thiazolidin-2-ylidene]hydrazono]methyl]phenyl]-2-methyl-1,2,4-triazol-3-yl]-4-(trifluoromethoxy)benzamide]
mortality at 800 ppm [1]: ≥ 75% | mortality at 500 ppm [2]: ≥ 75% | mortality at 800 ppm [3]: ≥ 75% | mortality at 500 ppm [4]: ≥ 75% | mortality at 300 ppm [5]: ≥ 75% | mortality at 800 ppm [6]: ≥ 50%
